± gives the standard deviation of the averaged measurements. One block for each compound: values may come before it.
Assay: TIMS collisional cross section (CCS, N2) of the lipid ion; higher = larger ion cross section
Conditions: ionization mode: negative, one isomer drawn
Experimental: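 Lipid extracts of human plasma (NIST SRM 1950), mouse liver or HeLa cells were separated by nanoflow C18 LC (30 min gradient) and analysed by TIMS-PASEF on a timsTOF Pro. Ion mobility was calibrated with the Agilent tuning mix (negative mode ions) and converted to collisional cross sections (Mason–Schamp, N2).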

[1] = sample type: Mouse Liver, ion (formula + adduct): [C45H79O13P-H] 1-
[2] = sample type: Mouse Liver, ion (formula + adduct): [C44H76NO10P-H] 1-
[3] = sample type: Mouse Liver, ion (formula + adduct): [C44H74NO10P-H] 1-
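Note: lipids from MTBE extraction, five replicate injections per sample, 100 ms TIMS ramp spanning 0.6–1.95 Vs/cm², lipid identity assigned from PASEF MS/MS spectra.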

SMILES: CC/C=C\C/C=C\C/C=C\C/C=C\C/C=C\CCCC(=O)OC[C@H](COP(=O)(O)OC1[C@H](O)[C@H](O)C(O)[C@H](O)[C@H]1O)OC(=O)CCCCCCCCCCCCCCCCC (stereo partly drawn) [PI 20:5_18:0@]
TIMS collisional cross section (sample type: Mouse Liver, ion (formula + adduct): [C47H81O13P-H] 1-): 296.4 Å²

SMILES: CCCCCCCCCCCCCCCC(=O)O[C@H](COC(=O)CCCCCCCCCCC)COP(=O)(O)OC[C@H](N)C(=O)O [PS 12:0@_16:0]
TIMS collisional cross section (sample type: Mouse Liver, ion (formula + adduct): [C34H66NO10P-H] 1-): 262.8 Å²

SMILES: CCCCCCCCCCCCCCCC(=O)OC[C@H](COP(=O)(O)OC[C@H](N)C(=O)O)OC(=O)CCCCCCCCCCCCC [PS 16:0_14:0@]
TIMS collisional cross section (sample type: Human plasma, ion (formula + adduct): [C36H70NO10P-H] 1-): 269.6 Å²

SMILES: CCCCCCCCCCCCCCCCCC(=O)OC[C@H](COP(=O)(O)OC[C@H](N)C(=O)O)OC(=O)CCCCCCCCCCCCCC [PS 18:0_15:0@]
TIMS collisional cross section (sample type: Human plasma, ion (formula + adduct): [C39H76NO10P+OAcO] 1-): 293.3 Å²

SMILES: CC/C=C\C/C=C\C/C=C\C/C=C\C/C=C\C/C=C\CCC(=O)O[C@H](COC(=O)CCCCCCC/C=C\CCCCCCCC)COP(=O)(O)OC[C@H](N)C(=O)O [PS 18:1@_22:6]
TIMS collisional cross section (sample type: Mouse Liver, ion (formula + adduct): [C46H76NO10P-H] 1-): 288 Å²

SMILES: CCCCC/C=C\C/C=C\CCCCCCCC(=O)OC[C@H](COP(=O)(O)OC[C@H](N)C(=O)O)OC(=O)CCCCCCCCCCCCCCC [PS 18:2@_16:0]
TIMS collisional cross section (sample type: Mouse Liver, ion (formula + adduct): [C40H74NO10P-H] 1-): 282.6 Å²

SMILES: CC/C=C\C/C=C\C/C=C\C/C=C\C/C=C\C/C=C\CCC(=O)O[C@H](COC(=O)CCCCCCCCC/C=C\C/C=C\CCCCC)COP(=O)(O)OC[C@H](N)C(=O)O [PS 20:2@_22:6]
TIMS collisional cross section (sample type: Mouse Liver, ion (formula + adduct): [C48H78NO10P-H] 1-): 296.6 Å²

SMILES: CCCCC/C=C\C/C=C\C/C=C\C/C=C\CCCC(=O)OC[C@H](COP(=O)(O)OC[C@H](N)C(=O)O)OC(=O)CCCCCCCCCCCCCCC [PS 20:4_16:0]
TIMS collisional cross section (sample type: Mouse Liver, ion (formula + adduct): [C42H74NO10P-H] 1-): 280.1 Å²

SMILES: CCCCC/C=C\C/C=C\C/C=C\C/C=C\CCCC(=O)OC[C@H](COP(=O)(O)OC[C@H](N)C(=O)O)OC(=O)CCCCCCC/C=C\CCCCCCCC [PS 20:4_18:1]
TIMS collisional cross section [2]: 284.6 Å²

SMILES: CC/C=C\C/C=C\C/C=C\C/C=C\C/C=C\CCCC(=O)OC[C@H](COP(=O)(O)OC[C@H](N)C(=O)O)OC(=O)CCCCCCCCCCCCCCCCC [PS 20:5_18:0]
TIMS collisional cross section [2]: 284.6 Å²

SMILES: CC/C=C\C/C=C\C/C=C\C/C=C\C/C=C\C/C=C\CCC(=O)OC[C@H](COP(=O)(O)OC[C@H](N)C(=O)O)OC(=O)CCCCCCCCCCCCCCC [PS 22:6_16:0]
TIMS collisional cross section [3]: 283.5 Å²

SMILES: CCCCCCCC/C=C\CCCCCCCC(=O)N[C@@H](COP(=O)([O-])OCC[N+](C)(C)C)[C@H](O)/C=C/CCCCCCCCCCC [SM d16:1_18:1@]
TIMS collisional cross section (sample type: Human plasma, ion (formula + adduct): [C39H77N2O6P+HCOO] 1-): 285 Å²

SMILES: CCCCCCCCCCCCC/C=C/[C@@H](O)[C@H](COP(=O)([O-])OCC[N+](C)(C)C)NC(=O)CCCCCCCCCCCCC [SM d18:1_14:0@]
TIMS collisional cross section (sample type: Human plasma, ion (formula + adduct): [C37H75N2O6P+HCOO] 1-): 280.6 Å²

Results, then the compound that gave them:

TIMS collisional cross section [1]: 303.5 Å²
SMILES: CCCCC/C=C\C/C=C\C/C=C\C/C=C\CCCC(=O)OC[C@H](COP(=O)(O)OC1[C@H](O)[C@H](O)C(O)[C@H](O)[C@H]1O)OC(=O)CCCCCCCCCCCCCCC (stereo partly drawn) [PI 20:4@_16:0]

TIMS collisional cross section (sample type: Human plasma, ion (formula + adduct): [C45H79O13P-H] 1-): 291.9 Å²
TIMS collisional cross section [1]: 291.3 Å²
SMILES: CCCCC/C=C\C/C=C\C/C=C\C/C=C\CCCC(=O)OC[C@H](COP(=O)(O)OC1[C@H](O)[C@H](O)C(O)[C@H](O)[C@H]1O)OC(=O)CCCCCCCCCCCCCCC (stereo partly drawn) [PI 20:4_16:0]

TIMS collisional cross section (sample type: Mouse Liver, ion (formula + adduct): [C45H77O13P-H] 1-): 290.1 ± 1.1 Å²
SMILES: CC/C=C\C/C=C\C/C=C\C/C=C\C/C=C\CCCC(=O)OC[C@H](COP(=O)(O)OC1[C@H](O)[C@H](O)C(O)[C@H](O)[C@H]1O)OC(=O)CCCCCCCCCCCCCCC (stereo partly drawn) [PI 20:5@_16:0]

TIMS collisional cross section (sample type: Human plasma, ion (formula + adduct): [C36H68NO10P-H] 1-): 269 Å²
TIMS collisional cross section (sample type: Mouse Liver, ion (formula + adduct): [C36H68NO10P-H] 1-): 268.4 Å²
SMILES: CCCC/C=C\CCCCCCCC(=O)OC[C@H](COP(=O)(O)OC[C@H](N)C(=O)O)OC(=O)CCCCCCCCCCCCCCC [PS 14:1@_16:0]

TIMS collisional cross section (sample type: Mouse Liver, ion (formula + adduct): [C42H80NO10P-H] 1-): 284.2 Å²
SMILES: CCCCCCCC/C=C\CCCCCCCC(=O)OC[C@H](COP(=O)(O)OC[C@H](N)C(=O)O)OC(=O)CCCCCCCCCCCCCCCCC [PS 18:1_18:0]

TIMS collisional cross section (sample type: Mouse Liver, ion (formula + adduct): [C42H76NO10P-H] 1-): 281.3 Å²
SMILES: CCCCC/C=C\C/C=C\C/C=C\CCCCCCC(=O)OC[C@H](COP(=O)(O)OC[C@H](N)C(=O)O)OC(=O)CCCCCCCCCCCCCCC [PS 20:3@_16:0]

TIMS collisional cross section (sample type: Mouse Liver, ion (formula + adduct): [C44H80NO10P-H] 1-): 286.4 Å²
SMILES: CCCCC/C=C\C/C=C\C/C=C\CCCCCCC(=O)OC[C@H](COP(=O)(O)OC[C@H](N)C(=O)O)OC(=O)CCCCCCCCCCCCCCCCC [PS 20:3_18:0]

TIMS collisional cross section [3]: 286.4 Å²
SMILES: CCCCC/C=C\C/C=C\C/C=C\C/C=C\CCCC(=O)OC[C@H](COP(=O)(O)OC[C@H](N)C(=O)O)OC(=O)CCCCCCC/C=C\C/C=C\CCCCC [PS 20:4_18:2@]

TIMS collisional cross section (sample type: Mouse Liver, ion (formula + adduct): [C46H74NO10P-H] 1-): 287.4 Å²
SMILES: CCCCC/C=C\C/C=C\C/C=C\C/C=C\CCCC(=O)OC[C@H](COP(=O)(O)OC[C@H](N)C(=O)O)OC(=O)CCC/C=C\C/C=C\C/C=C\C/C=C\CCCCC [PS 20:4_20:4]

TIMS collisional cross section (sample type: Mouse Liver, ion (formula + adduct): [C42H72NO10P-H] 1-): 279 Å²
SMILES: CC/C=C\C/C=C\C/C=C\C/C=C\C/C=C\CCCC(=O)OC[C@H](COP(=O)(O)OC[C@H](N)C(=O)O)OC(=O)CCCCCCCCCCCCCCC [PS 20:5_16:0]

TIMS collisional cross section (sample type: Mouse Liver, ion (formula + adduct): [C44H78NO10P-H] 1-): 288.7 Å²
SMILES: CCCCC/C=C\C/C=C\C/C=C\C/C=C\CCCCCC(=O)OC[C@H](COP(=O)(O)OC[C@H](N)C(=O)O)OC(=O)CCCCCCCCCCCCCCC [PS 22:4@_16:0]

TIMS collisional cross section (sample type: Mouse Liver, ion (formula + adduct): [C46H82NO10P-H] 1-): 291.4 Å²
SMILES: CCCCC/C=C\C/C=C\C/C=C\C/C=C\CCCCCC(=O)OC[C@H](COP(=O)(O)OC[C@H](N)C(=O)O)OC(=O)CCCCCCCCCCCCCCCCC [PS 22:4_18:0]

TIMS collisional cross section (sample type: Mouse Liver, ion (formula + adduct): [C46H78NO10P-H] 1-): 289.7 Å²
SMILES: CC/C=C\C/C=C\C/C=C\C/C=C\C/C=C\C/C=C\CCC(=O)OC[C@H](COP(=O)(O)OC[C@H](N)C(=O)O)OC(=O)CCCCCCCCCCCCCCCCC [PS 22:6_18:0]

From the supplement of paper PMC6965134
